The subject of the experiment is chronic asthma mice. The experiment is described as follows: Chronic asthma model (ovalbumin sensitization, nebulized challenge, d42 / d62). It counts as in vivo, Balb/c mice. As for the experimental part:
(Chronic asthma model) Seven week old female Balb/c mice were injected intraperitoneally (IP) with 20 μg of chicken ovalbumin (OVA) absorbed with 1 mg aluminum hydroxide, an adjuvant known to promote the development of a Th2 response by the immune system, on day 0 (denoted by first day injection) and day 7. Full body inhaled exposure to OVA was initiated at day 21. Briefly, these treatments utilized an InExpose full body aerosol chamber (Scireq, Montreal, Canada) where a 1% OVA solution, suspended in PBS, pH 7.45, was nebulized at 0.2 mL/min with a filtered room air flow rate of 2400 mL/min for a total period of 30 minutes, 3 times a week for either 42 (FIG. 13A) or 62 days (FIG. 13B). (Acute asthma model) Seven week old female Balb/c mice were injected intraperitoneally with 50 μg of chicken OVA absorbed with 1 mg aluminum hydroxide on day 0 (denoted by first day injection) and day 7. Aqueous OVA ([…] in PBS) was delivered intranasally daily from day 20 to day 24 (FIG. 2), Vasculotide or saline vehicle (control, PBS) was delivered to the mice via IP injections.
Blood was collected from the left ventricle of anaesthetized mice into heparinized 1 cc syringes. Following collection, blood was placed into Li-heparin microtubes. Subsequently, the tubes were centrifuged at 3000 RPM for 15 minutes at 4° C. Plasma was collected from the top of the samples and frozen at −80° C. for later analysis. The remaining buffy coat and red blood cells were lysed then fixed in 1× lyse/fix buffer (BD Biosciences, Mississauga, Canada) according to manufacturer's instructions.
Twenty-four hours after last aerosol exposure and immediately following exsanguinations, tissue was dissected from neck to expose trachea. A small lateral incision was made in the trachea to allow passage of 23 gauge lavage catheter into trachea. The catheter, attached to a 3 cc syringe containing warmed Hanks buffer, was carefully passed into the lumen of the trachea. A suture was secured around the trachea with a knot to secure the catheter in place. Buffer (1 cc) was injected slowly into the lungs and fully aspirated three times. The volume of recovered buffer was recorded for each animal to facilitate calculation of BAL infiltrate.
Analysis of plasma samples generated for the asthma study was the same as that outlined for the atopic dermatitis study with one small modification. Plasma from mice used in the asthma study was diluted 1:4 instead of 1:8 for the atopic dermatitis samples.
(BAL analysis) Collected BAL fluid was centrifuged at 1000 RPM for 10 minutes at 4° C. BAL fluid was removed and collected for subsequent CBA analysis. The BAL cell pellet was lysed/fixed in 1× lyse/fix buffer according to manufacturer's instructions (BD Biosciences, Mississauga, Canada). The total number of cells contained in each sample was determined by flow cytometry using flow-set beads (Count Bright Beads, Invitrogen), to facilitate sample volume and cell count calculations. A total of 7000 beads were counted for each sample. Flow cytometry analysis was gated on FSC/SSC to eliminate debris and dead cells. Differential cell count analysis was also performed by FACS where surface marker antibodies were used as follows: eosinophils (SSC^hi FITCmed Ige^med), neutrophils (SSC^med FITC^hi Ige^med), monocytes (SSC^med CD11b^+ CD115^+) and lymphocytes (SSC^lo and CD4^+ or CD8^+). In addition to monocyte markers (SSC^med CD11b^+ CD115^+), these cell populations were further characterized using antibodies specific for Tie2, TLR4, and Ly6C. Ly6C^low and Ly6C^high further define monocytes as classical, resident monocytes or inflammatory monocytes, respectively. Identified neutrophils were further labelled with antibodies to Tie2 and TLR4. All cell suspensions were incubated with purified anti-CD16/CD32 mAb (BD Biosciences, Mississauga, ON, Canada) to block non-specific background caused by Fc receptors, followed by incubation with the specific antibodies. […]

Where [1] appears, read: chronic asthma, sustained effect.

Entries after “also recorded” stand apart in the source; their conditions may differ.

On to “Vasculotide: Modified T7 peptide (CHHHRHSF, SEQ ID NO:2) conjugated to 10 kDa tetrameric polyethylene glycol-maleimide; Tie2 binding peptide mimetic”, for which the “Tie2 levels in BAL neutrophils” value (asthmatic mice, flow cytometry) is “unchanged”. Further, where the note is “chronic asthma, d42”, the BAL neutrophil count entry is on record as “unchanged”. In addition, where the note is “chronic asthma, d42 and d62”, the BAL eosinophil numbers result is recorded as “significantly decreased; also recorded: statistical reduction”, the “BAL monocyte infiltration / absolute number of monocytes” value was “significantly decreased; also recorded: statistical reduction” and the “inflammatory monocytes (Ly6C+) in BAL” value is “decreased”. Further, for the setting “chronic asthma, d42 or d62, did not reach significance”, the “absolute number of peripheral blood mononuclear cells” value was “clear trend toward a reduction”. Also, the BAL neutrophil count entry (chronic asthma, d62) is “slight increase”. Moreover, for the setting “chronic asthma, d62, listed as Vsaculotide”, the BAL neutrophil count entry is listed as “very small increase”. In addition, for the setting “chronic asthma, day 42 and day 62”, the BAL lymphocytes entry is recorded as “statistical reduction”. Under setting [1], the “plasma IL-5 (cytometric bead array)” value is listed as “decreasing”, the “plasma RANTES (cytometric bead array)” value is “decreasing” and the “plasma TNF (cytometric bead array)” value is “decreasing”. Moreover, the “reduction of total absolute BAL counts” value (d42 chronic asthma model, systemic (IP) treatment, flow cytometry) came to 45%. The “TLR4 expression on BAL eosinophils (mean fluorescence intensity)” value (d42 chronic asthma, PBS 166) is on record as 758 MFI. Besides, under “d42 chronic asthma, PBS 566”, the “cell surface level of Tie2 on BAL eosinophils (mean fluorescence intensity)” value was found to be 205 MFI. The “decrease in lung collagen deposition (Masson's trichrome, % blue positive area)” value (d62 chronic asthma, vs PBS) is recorded as 4 fold. The “TLR4 expression on BAL eosinophils (mean fluorescence intensity)” value (d62 chronic asthma, PBS 118) was 132 MFI.

For the origin of these results see patent publication US9186390B2, “Methods and uses of TIE2 binding and/or activating agents” (Sunnybrook Health Sciences Center, priority 2010, dated 2015).
